PubChem BioAssay AID248 (DTP/NCI, 2004)
Where “and” joins values, the source holds several entries; their conditions need not be identical. Identical values can stand only once. Inconclusive results and toxic doses are left out.

Test system: L1210 leukemia ip in BDF1 mice, survival T/C
Experiment: NCI In Vivo Anticancer Drug Screen. Data for tumor model L1210 Leukemia (intraperitoneal) in B6D2F1 (BDF1) mice
Details: endpoint: mean survival time, higher = longer survival
Outline: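 Antitumor effect is assessed in tumor-bearing animals. Survival in the compound arm is compared with a vehicle-dosed control arm and expressed as their quotient.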

Compound: O=C(Nc1ccc(C2=NCCCN2)cc1)c1ccc(C(=O)Nc2ccc(C3=NCCCN3)cc2)cc1
- T/C (dose: 0.5 mg/kg/injection, schedule: Q01DX Z (ip), vehicle: carboxymethylcellulose (CMC)): 95 % of control
- T/C (dose: 0.5 mg/kg/injection, schedule: Q01DX Z (iv), vehicle: saline): 100 % of control
- T/C (dose: 0.8 mg/kg/injection, schedule: Q01DX Z (ip), vehicle: carboxymethylcellulose (CMC)): 101 % of control
- T/C (dose: 1.0 mg/kg/injection, schedule: Q01DX010 (ip), vehicle: other): 160 % of control
- T/C (dose: 1.0 mg/kg/injection, schedule: Q01DX010 (iv), vehicle: other): 103 % of control
- T/C (dose: 1.0 mg/kg/injection, schedule: Q01DX Z (iv), vehicle: saline): 107 % of control
- T/C (dose: 1.2 mg/kg/injection, schedule: Q01DX Z (ip), vehicle: carboxymethylcellulose (CMC)): 103 % of control
- T/C (dose: 1.9 mg/kg/injection, schedule: Q01DX Z (ip), vehicle: carboxymethylcellulose (CMC)): 109 % of control and 211 % of control
- T/C (dose: 2.0 mg/kg/injection, schedule: Q01DX010 (ip), vehicle: other): 174 % of control and 235 % of control
- T/C (dose: 2.0 mg/kg/injection, schedule: Q01DX010 (ip), vehicle: saline): 155 % of control
- T/C (dose: 2.0 mg/kg/injection, schedule: Q01DX010 (iv), vehicle: other): 180 % of control
- T/C (dose: 2.0 mg/kg/injection, schedule: Q01DX Z (iv), vehicle: saline): 111 % of control
- T/C (dose: 2.8 mg/kg/injection, schedule: Q01DX Z (ip), vehicle: carboxymethylcellulose (CMC)): 277 % of control
- T/C (dose: 4.0 mg/kg/injection, schedule: Q01DX010 (ip), vehicle: other): 205 % of control and 217 % of control and 265 % of control
- T/C (dose: 4.0 mg/kg/injection, schedule: Q01DX010 (ip), vehicle: saline): 208 % of control and 235 % of control
- T/C (dose: 4.0 mg/kg/injection, schedule: Q01DX010 (iv), vehicle: other): 237 % of control
- T/C (dose: 4.0 mg/kg/injection, schedule: Q01DX010 (iv), vehicle: saline): 203 % of control
- T/C (dose: 4.0 mg/kg/injection, schedule: Q01DX Z (iv), vehicle: other): 202 % of control
- T/C (dose: 4.0 mg/kg/injection, schedule: Q01DX Z (iv), vehicle: saline): 238 % of control
- T/C (dose: 4.2 mg/kg/injection, schedule: Q01DX Z (ip), vehicle: carboxymethylcellulose (CMC)): 280 % of control
- T/C (dose: 6.3 mg/kg/injection, schedule: Q01DX Z (ip), vehicle: carboxymethylcellulose (CMC)): 209 % of control and 229 % of control
- T/C (dose: 8.0 mg/kg/injection, schedule: Q01DX010 (ip), vehicle: other): 97 % of control and 115 % of control
- T/C (dose: 8.0 mg/kg/injection, schedule: Q01DX010 (ip), vehicle: saline): 229 % of control and 338 % of control
- T/C (dose: 8.0 mg/kg/injection, schedule: Q01DX010 (iv), vehicle: saline): 161 % of control
- T/C (dose: 8.0 mg/kg/injection, schedule: Q01DX Z (iv), vehicle: saline): 182 % of control
- T/C (dose: 9.4 mg/kg/injection, schedule: Q01DX Z (ip), vehicle: carboxymethylcellulose (CMC)): 211 % of control
- T/C (dose: 16.0 mg/kg/injection, schedule: Q01DX010 (ip), vehicle: other): 103 % of control and 89 % of control
- T/C (dose: 16.0 mg/kg/injection, schedule: Q01DX010 (iv), vehicle: saline): 117 % of control
- T/C (dose: 16.0 mg/kg/injection, schedule: Q01DX010 (sc), vehicle: olive oil, sesame oil, peanut oil): 113 % of control
- T/C (dose: 21.3 mg/kg/injection, schedule: Q01DX Z (ip), vehicle: carboxymethylcellulose (CMC)): 119 % of control
- T/C (dose: 22.0 mg/kg/injection, schedule: Q01DX010 (sc), vehicle: olive oil, sesame oil, peanut oil): 101 % of control
- T/C (dose: 30.0 mg/kg/injection, schedule: Q01DX Z (oral), vehicle: carboxymethylcellulose (CMC)): 95 % of control
- T/C (dose: 31.3 mg/kg/injection, schedule: Q01DX010 (sc), vehicle: olive oil, sesame oil, peanut oil): 119 % of control and 89 % of control
- T/C (dose: 31.3 mg/kg/injection, schedule: Q02DX004 (im), vehicle: olive oil, sesame oil, peanut oil): 116 % of control and 124 % of control
- T/C (dose: 32.0 mg/kg/injection, schedule: Q01DX Z (ip), vehicle: carboxymethylcellulose (CMC)): 123 % of control
- T/C (dose: 44.0 mg/kg/injection, schedule: Q01DX Z (sc), vehicle: saline): 109 % of control
- T/C (dose: 48.0 mg/kg/injection, schedule: Q01DX Z (ip), vehicle: carboxymethylcellulose (CMC)): 94 % of control
- T/C (dose: 60.0 mg/kg/injection, schedule: Q01DX Z (oral), vehicle: carboxymethylcellulose (CMC)): 91 % of control
- T/C (dose: 62.5 mg/kg/injection, schedule: Q01DX001 (im), vehicle: steriod suspending solution): 106 % of control
- T/C (dose: 62.5 mg/kg/injection, schedule: Q01DX010 (oral), vehicle: other): 111 % of control
- T/C (dose: 62.5 mg/kg/injection, schedule: Q02DX004 (im), vehicle: olive oil, sesame oil, peanut oil): 100 % of control and 107 % of control
- T/C (dose: 66.0 mg/kg/injection, schedule: Q01DX Z (sc), vehicle: saline): 102 % of control
- T/C (dose: 72.0 mg/kg/injection, schedule: Q01DX Z (ip), vehicle: carboxymethylcellulose (CMC)): 100 % of control
- T/C (dose: 88.5 mg/kg/injection, schedule: Q#A X Z (oral), vehicle: saline): 115 % of control
- T/C (dose: 100.0 mg/kg/injection, schedule: Q01DX Z (sc), vehicle: saline): 105 % of control
- T/C (dose: 120.0 mg/kg/injection, schedule: Q01DX Z (oral), vehicle: carboxymethylcellulose (CMC)): 91 % of control
- T/C (dose: 125.0 mg/kg/injection, schedule: Q01DX001 (im), vehicle: steriod suspending solution): 108 % of control
- T/C (dose: 125.0 mg/kg/injection, schedule: Q02DX004 (im), vehicle: olive oil, sesame oil, peanut oil): 98 % of control and 105 % of control
- T/C (dose: 150.0 mg/kg/injection, schedule: Q01DX Z (sc), vehicle: saline): 98 % of control and 103 % of control
- T/C (dose: 177.0 mg/kg/injection, schedule: Q01DX Z (oral), vehicle: saline): 109 % of control
- T/C (dose: 200.0 mg/kg/injection, schedule: Q#A X Z (oral), vehicle: saline): 161 % of control
- T/C (dose: 250.0 mg/kg/injection, schedule: Q01DX001 (im), vehicle: steriod suspending solution): 93 % of control
- T/C (dose: 250.0 mg/kg/injection, schedule: Q01DX010 (oral), vehicle: other): 183 % of control
- T/C (dose: 250.0 mg/kg/injection, schedule: Q02DX004 (im), vehicle: olive oil, sesame oil, peanut oil): 100 % of control and 104 % of control
- T/C (dose: 300.0 mg/kg/injection, schedule: Q01DX Z (sc), vehicle: saline): 105 % of control
- T/C (dose: 333.0 mg/kg/injection, schedule: Q## X010 (oral), vehicle: saline): 153 % of control
- T/C (dose: 400.0 mg/kg/injection, schedule: Q01DX Z (oral), vehicle: saline): 158 % of control
- T/C (dose: 500.0 mg/kg/injection, schedule: Q01DX010 (oral), vehicle: other): 181 % of control
- T/C (dose: 500.0 mg/kg/injection, schedule: Q## X010 (oral), vehicle: saline): 121 % of control
- T/C (dose: 531.0 mg/kg/injection, schedule: Q03DX Z (oral), vehicle: saline): 105 % of control
- T/C (dose: 600.0 mg/kg/injection, schedule: Q01DX Z (oral), vehicle: saline): 151 % of control and 163 % of control
- T/C (dose: 798.0 mg/kg/injection, schedule: Q03DX Z (oral), vehicle: saline): 107 % of control
- T/C (dose: 900.0 mg/kg/injection, schedule: Q01DX Z (oral), vehicle: saline): 124 % of control
- T/C (dose: 1200.0 mg/kg/injection, schedule: Q03DX Z (oral), vehicle: saline): 98 % of control
- T/C (dose: 1239.0 mg/kg/injection, schedule: Q07DX Z (oral), vehicle: saline): 102 % of control
- T/C (dose: 1800.0 mg/kg/injection, schedule: Q03DX Z (oral), vehicle: saline): 111 % of control
- T/C (dose: 1862.0 mg/kg/injection, schedule: Q07DX Z (oral), vehicle: saline): 105 % of control
- T/C (dose: 2700.0 mg/kg/injection, schedule: Q03DX Z (oral), vehicle: saline): 121 % of control
- T/C (dose: 2800.0 mg/kg/injection, schedule: Q07DX Z (oral), vehicle: saline): 101 % of control
- T/C (dose: 4200.0 mg/kg/injection, schedule: Q07DX Z (oral), vehicle: saline): 105 % of control

Compound: c1ccc(ON=C2c3ccccc3-c3ccccc32)cc1
- T/C (dose: 100.0 mg/kg/injection, schedule: Q04DX003 (ip), vehicle: saline): 102 % of control
- T/C (dose: 200.0 mg/kg/injection, schedule: Q04DX003 (ip), vehicle: saline): 96 % of control
- T/C (dose: 400.0 mg/kg/injection, schedule: Q04DX003 (ip), vehicle: saline): 89 % of control

Compound: Cc1cc(OC(=O)NC2CCCCC2)cc(C)c1Cl
- T/C (dose: 100.0 mg/kg/injection, schedule: Q01DX009 (ip), vehicle: Klucel (hydroxypropylcellulose) (HPC)): 95 % of control
- T/C (dose: 200.0 mg/kg/injection, schedule: Q01DX009 (ip), vehicle: Klucel (hydroxypropylcellulose) (HPC)): 95 % of control
- T/C (dose: 400.0 mg/kg/injection, schedule: Q01DX009 (ip), vehicle: Klucel (hydroxypropylcellulose) (HPC)): 94 % of control
